pKi: −log10 of the molar value. “Also recorded” adds a separate entry of the source.
How the values were obtained:
[1] = molecular target: T1, prostaglandin transporter (PGT) (Rattus norvegicus, UniProt Q00910); assay: PGE2 uptake by MDCK cells stably expressing PGT; format: cell-based
T1 construct: GFP; expressed in transfected cells
Experimental: MDCK or 3T3 cells were seeded at 15-20% confluence on 24-well plates. The day on which the cells were seeded was considered day 1. PGE2 uptake experiments were conducted on day 4. All of the PGE2 uptake experiments were conducted at room temperature. On day 4, cells were washed twice with Waymouth buffer (135 mM NaCl, 13 mM H-Hepes, 13 mM Na-Hepes, 2.5 mM CaCl2, 1.2 mM MgCl2, 0.8 mM MgSO4, 5 mM KCl, and 28 mM D-glucose). Then 200 μL of Waymouth buffer containing [^3H]PGE2 was added to each well. At the designated time, the uptake of [^3H]PGE2 was stopped by aspiration of uptake buffer; this was followed by immediate washing twice with 500 μL of chilled Waymouth buffer. Cells were then lysed with 100 μL lysis buffer containing 0.25% SDS and 0.05 N NaOH. 1.5 mL of scintillation solution was added to each well, and intracellular [^3H]PGE2 was counted by MicroBeta Counter.
For preliminary screening of the compounds, 25 μL of Waymouth buffer containing small organic compounds were added to each well; this was immediately followed by the addition of 175 μL of Waymouth buffer containing [^3H]PGE2. In each well, the total volume of uptake medium was 200 μL. Organic compounds were first dissolved in DMSO and then diluted in Waymouth buffer. The percent inhibition of [^3H]PGE2 uptake by compounds was calculated as [(uptakevehicle−uptakeinhibitor)÷(uptakevehicle)]×100.
The initial velocities at various initial extracellular concentrations of PGE2 were determined from the PGE2 uptake in the first 2 minutes; these were linear over the time course of PGE2 uptake. Ki values were obtained by curve fitting the reciprocal of initial velocities of PGE2 uptake versus the reciprocal of extracellular PGE2 concentrations at various concentrations of the inhibitors. At low PGE2 concentrations, the extracellular concentrations were taken as ^3H labeled PGE2, which has a specific activity of 500 μCi/mol. At high concentrations of PGE2, a mixture of ^3H labeled and unlabeled PGE2 was made to a final specific activity of 25 μCi/mol.

[2] = Chronic oral tolerability: metabolic cages and post-mortem H&E histology; format: in vivo, mice; details: for pathological damage to the gastrointestinal tract: H&E stained tissues
Experimental: The mice described in FIGS. 17-19 were studied in metabolic cages. Six days after they adjusted to the caged condition on regular diet and water, regular drinking water, or vehicle (2% DMSO and 2% cremophor) in drinking water, or 2 mM T26A in drinking water was administered for 16 days. Their water and food intake, weight body and urine volume were recorded daily. Results are shown graphically in FIG. 20.
FIG. 21 provides results of post-mortem studies on the mice of FIGS. 17-19 administered either regular drinking water, or vehicle (2% DMSO and 2% cremophor) in drinking water, or 2 mM T26A in drinking water for 16 days. At the end of experiments, we isolated tissues from the mice and made H&E stained slides of tissues and examined the tissues microscopically.

[3] = In vivo test of acute T26A toxicity; design: species or system mice; details: 100 uL intraperitoneal
Experimental: All mice were male. They received one intraperitoneal injection. The injected volume was 100 uL to all of them, 14 hours after injection, they were all alive, and moved and acted normally.

[4] = Endogenous PGE2 in circulating blood after jugular vein injection; format: in vivo, rats; details: 300 μL of 1 mM, blood 10 minutes later
Experimental: Either 300 μL vehicle (4% DMSO and 4% cremophor in water) or 300 μL of 1 mM T26A was injected into the jugular vein of anesthetized rats (300-325 g weight). One mL of blood was obtained from the carotid artery 10 minutes later, PGE2 in blood samples was measured using PGE2 EIA kit from Caymanchem. […] This finding is consistent with the model advanced in Example 2 (FIG. 8). Since PGT transports PGE2 into the cell, inhibiting PGT would be expected to inhibit removal of PGE2 from blood to be internalized and degraded.

[5] = Degradation of exogenously-administered PGE2; format: in vivo, rats; details: 300 μL of 1 mM IV, PGE2 injected ten minutes later
Experimental: Either 300 μL vehicle (4% DMSO and 4% cremophor in water) or 300 μL of 1 mM T26A was injected into the jugular vein of anesthetized rats (300-325 g weight). Ten minutes later 100 μL of 1 ng/μL PGE2 was injected. One mL blood was withdrawn from the carotid artery at 1, 3, 5, and 10 min after PGE2 injection. PGE2 in blood samples was measured using PGE2 EIA kit from Caymanchem. […] This is also consistent with the FIG. 8 model. Inhibiting PGE2 transport into the cell reduces its intracellular degradation.

[6] = Systemic BP after IV injection in anesthetized WKY and SHR rats; format: in vivo
Experimental: The effect of T26 IV injections on systemic BP in anesthetized rats of a control strain (WKY) and the Spontaneously Hypertensive Rat (SHR) strain was evaluated.

EP4 = assay: PGE2 binding to EP4 in membranes of MDCK cells expressing PGT; format: cell-based, human; details: 5 μM, 10 minutes at 37° C.
Experimental: EP4 expression in MDCK cells that constitutively express PGT was tested by determining PGE2 binding to the cells. Wild type MDCK cells and MDCK cells stably expressing PGT were transiently transfected with human cDNA of EP4 (UMR cNDA Resource Center, www.cdna.org). About 30 hours after transfection, the cells were incubated in Waymouth buffer containing 0 and 20 nM of unlabeled PGE2, and either 4% vehicle (DMSO) or 5 μM T26A, for 10 minutes at 37° C. The cells were then washed with PBS buffer and lysed the cells with lysing buffer containing 10 mM TrisHCl, pH, 7.5, 5 mM EDTA, 100 nM okadaic acid, and 20 μM indomethacin. The cells were then harvested and homogenized using a Potter-Elvehiem homogenizer in an ice cold solution containing 10 mM Tris-HCl, pH. 7.4, 1 mM EDTA, 0, 1 mM phenylmethylsulfonyl fluoride, 20 μM indomethacin, then centrifuged the homogenate at 800 g for 5 minutes. The supernatant was transferred to another tube and centrifuged at 19000 rpm for 45 minutes. The supernatant was then discarded and the pellets washed with buffer A containing 20 mM HEPES-NaOH, pH. […] EP4 bound to ^3H-PGE2 were quantified as described by Negishi et al., 1987. Nonspecific binding was determined by using 1000-fold excess of unlabeled PGE2 in the incubation mixture. The specific binding was calculated by subtracting the nonspecific bind value from the total binding value (Nishigaki et al., 1996).

[7] = 2 mM in drinking water, 16 days

[N-]=[N+]=NCCOCCOCCNC(=O)c1ccc(Nc2nc(NCCOCCOCCNC(=O)c3ccccc3)nc(Nc3ccc(O)cc3)n2)cc1 [T26A]
pKi ([1]; Example 2): 6.52
inhibition at 5 µM ([1]; MDCK, read-out: % Inhib. at 5 μM): 92%
pKi ([1]; Table 2): 6.42
mode of inhibition ([1]; double reciprocal analysis): competitively inhibits
effects on water and food intake, body weight, daily urine volume [2, 7]: did not have any observable effects; also recorded: does not have any apparent effects
pathological damage to the gastrointestinal tract [2, 7]: did not cause any pathological damage
pathological damage to the gastrointestinal tract ([2]; 2 mM in drinking water, 16 days, listed as T26): does not cause any pathological damage
toxicity on chronic oral basis ([2]; doses sufficient to raise plasma and urinary PGE2): non-toxic
Condition ([3]; 6 mM, 3% DMSO, 3% Cremophor in water): Appeared normal.
Condition ([3]; 25 mM, 5% DMSO, 5% Cremophor in water): More actively than mice #1,; also recorded: More active than mice #1, #4
Condition ([3]; 250 mM in 100% DMSO): Rarely moved for the first
plasma PGE2 concentrations [4]: greater than two-fold increase; also recorded: increases endogenous PGE2
degradation of exogenously-administered PGE2 [5]: inhibited PGE2 degradation; also recorded: reduces the degradation
systemic blood pressure [6]: reduced the blood pressure of both rats
effect on PGT-induced increase of PGE2 binding to EP4 (EP4): abrogates this effect
